The text below walks through data of patent publication US20060281768A1, “THIENOPYRIMIDINE AND THIENOPYRIDINE KINASE MODULATORS” (priority 2005, published 2006).

Experiment [1] addresses T1, FLT3 571-993 (Homo sapiens, UniProt P36888).
T1 construct: 10 nM FLT3 571-993, 20 ug/mL poly Glu4Tyr
T1 sequence (P36888 571-993): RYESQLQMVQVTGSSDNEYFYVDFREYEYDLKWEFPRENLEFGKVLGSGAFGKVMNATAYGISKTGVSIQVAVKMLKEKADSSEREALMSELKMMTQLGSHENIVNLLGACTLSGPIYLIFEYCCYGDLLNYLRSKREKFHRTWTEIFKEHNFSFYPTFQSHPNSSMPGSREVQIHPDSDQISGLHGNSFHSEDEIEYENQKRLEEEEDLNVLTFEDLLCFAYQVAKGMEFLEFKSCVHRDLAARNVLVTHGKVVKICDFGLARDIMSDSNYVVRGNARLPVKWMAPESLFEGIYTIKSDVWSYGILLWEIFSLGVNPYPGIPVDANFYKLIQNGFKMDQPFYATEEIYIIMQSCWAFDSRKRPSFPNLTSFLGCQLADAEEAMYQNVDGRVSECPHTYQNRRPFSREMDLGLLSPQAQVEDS
In words: FLT3 Fluorescence Polarization Kinase Assay. In kind it is biochemical. Particulars: 10 nM FLT3 571-993, 150 uM ATP, 30 minutes; uncertainty +10%. The method, then: The FLT3 FP assay utilizes the fluorescein-labeled phosphopeptide and the anti-phosphotyrosine antibody included in the Panvera Phospho-Tyrosine Kinase Kit (Green) supplied by Invitrogen. When FLT3 phosphorylates poly Glu4Tyr, the fluorescein-labeled phosphopeptide is displaced from the anti-phosphotyrosine antibody by the phosphorylated poly Glu4Tyr, thus decreasing the FP value. The FLT3 kinase reaction is incubated at room temperature for 30 minutes under the following conditions: 10 nM FLT3 571-993, 20 ug/mL poly Glu4Tyr, 150 uM ATP, 5mM MgCl2, 1% compound in DMSO. The kinase reaction is stopped with the addition of EDTA. The fluorescein-labeled phosphopeptide and the anti-phosphotyrosine antibody are added and incubated for 30 minutes at room temperature.
All data points are an average of triplicate samples. Inhibition and IC50 data analysis was done with GraphPad Prism using a non-linear regression fit with a multiparamater, sigmoidal dose-response (variable slope) equation.

In experiment [2] the test system is MV4-11 cells. In words: Growth inhibition of MV4-11 cells (CellTiterGlo). The experiment is classed as cell-based. As to conditions: Homo sapiens, 72 hours, uncertainty +20%. As for the experimental part:
FLT3 specific growth inhibition was measured in the leukemic cell line MV4-11 (ATCC Number: CRL-9591). […] MV4-11 cells cannot grow and survive without active FLT31TD.
To measure proliferation inhibition by test compounds the luciferase based CellTiterGlo reagent (Promega) was used. Cells are plated at 10,000 cells per well in 100ul of in RPMI media containing penn/strep, 10% FBS and lng/ml GM-CSF or 1 ng/ml IL-3 for MV4-11 and Baf3 cells respectively.
Compound dilutions or 0.1% DMSO (vehicle control) are added to cells and the cells are allowed to grow for 72 hours at standard cell growth conditions (37° C., 5% CO2). Total cell growth is quantified as the difference in luminescent counts (relative light units, RLU) of cell number at Day 0 compared to total cell number at Day 3 (72 hours of growth and/or compound treatment). One hundred percent inhibition of growth is defined as an RLU equivalent to the Day 0 reading. Zero percent inhibition is defined as the RLU signal for the DMSO vehicle control at Day 3 of growth. All data points are an average of triplicate samples. […] Inhibition and IC50 data analysis was done with GraphPad Prism using a non-linear regression fit with a multiparamater, sigmoidal dose-response (variable slope) equation.
MV-411 cells expressed the FLT3 internal tandem duplication mutation, and thus were entirely dependent upon FLT3 activity for growth. […] In contrast, the Baf3 cell proliferations is driven by the cytokine IL-3 and these cells are used as a non-specific toxicity control for test compounds.

Experiment [3] deals with T2, wild-type FLT3 receptor (Homo sapiens, UniProt P36888).
T2 construct: host or cells: Baf3 (murine B cell lymphoma line)
T2 sequence (P36888 27-993): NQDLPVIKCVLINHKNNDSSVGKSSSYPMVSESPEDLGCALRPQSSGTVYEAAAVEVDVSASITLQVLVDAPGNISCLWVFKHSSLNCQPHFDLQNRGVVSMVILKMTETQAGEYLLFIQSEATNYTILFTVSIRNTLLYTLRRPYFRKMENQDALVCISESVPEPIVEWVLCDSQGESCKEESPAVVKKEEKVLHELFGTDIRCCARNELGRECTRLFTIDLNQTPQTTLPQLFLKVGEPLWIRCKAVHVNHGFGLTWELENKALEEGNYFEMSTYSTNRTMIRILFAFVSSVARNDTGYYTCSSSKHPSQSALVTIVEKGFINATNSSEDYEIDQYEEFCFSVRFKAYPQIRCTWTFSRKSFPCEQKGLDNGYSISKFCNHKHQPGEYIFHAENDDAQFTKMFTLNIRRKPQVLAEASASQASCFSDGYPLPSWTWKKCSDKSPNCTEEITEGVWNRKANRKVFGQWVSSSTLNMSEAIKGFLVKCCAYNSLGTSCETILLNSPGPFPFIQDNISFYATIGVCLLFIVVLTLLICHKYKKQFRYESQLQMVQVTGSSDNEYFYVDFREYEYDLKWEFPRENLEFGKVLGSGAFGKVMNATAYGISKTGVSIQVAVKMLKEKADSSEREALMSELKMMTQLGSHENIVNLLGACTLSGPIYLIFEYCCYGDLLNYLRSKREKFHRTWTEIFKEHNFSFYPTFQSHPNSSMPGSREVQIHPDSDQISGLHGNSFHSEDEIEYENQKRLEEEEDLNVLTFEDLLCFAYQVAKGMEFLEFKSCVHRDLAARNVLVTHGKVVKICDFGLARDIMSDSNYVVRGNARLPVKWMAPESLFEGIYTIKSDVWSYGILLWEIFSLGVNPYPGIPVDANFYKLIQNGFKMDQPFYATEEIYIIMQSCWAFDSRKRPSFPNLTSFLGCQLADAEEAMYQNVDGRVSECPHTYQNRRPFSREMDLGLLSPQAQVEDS
In words: Cell-Based FLT3 Receptor Elisa (Baf3 FLT3 cells, FLT3 phosphorylation). As to conditions: Flt ligand stimulated FLT3 phosphorylation, 1 hour compound incubation, uncertainty +20%. The method, then: Cells overexpressing the FLT3 receptor were obtained from Dr. Michael Heinrich (Oregon Health and Sciences University). The Baf3 FLT3 cell lines were created by stable transfection of parental Baf3 cells (a murine B cell lymphoma line dependent on the cytokine IL-3 for growth) with wild-type FLT3. Cells were selected for their ability to grow in the absence of IL-3 and in the presence of FLT3 ligand.
Baf3 cells were maintained in RPMI 1640 with 10%FCS, penn/strep and 10 ng/mL FLT ligand at 37° C., 5% CO2. To measure direct inhibition of the wild-type FLT3 receptor activity and phosphorylation a sandwich ELISA method was developed similar to those developed for other RTKs (3,4). 200ul of Baf3FLT3 cells (1×10^6/ml) were plated in 96 well dishes in RPM11640 with 0.5% serum and 0.01ng/ml IL-3 for 16 hours prior to 1 hour compound or DMSO vehicle incubation. Cells were treated with 100 ng/ml Flt ligand (R&D Systems Cat# 308-FK) for 10 min. at 37° C. Cells were pelleted, washed and lysed in 100ul HNTG buffer (50 mM Hepes, 150 mM NaCl, 10% Glycerol, 1% Triton -X-100, 10 mM NaF, 1 mM EDTA, 1.5 mM MgCl2, 10 mM NaPyrophosphate) supplemented with phosphatase (Sigma Cat# P2850) and protease inhibitors (Sigma Cat #P8340). Lysates were cleared by centrifugation at 1000×g for 5 minutes at 4° C. Cell lysates were transferred to white wall 96 well microtiter (Costar #9018) plates coated with 50ng/well anti-FLT3 antibody (Santa Cruz Cat# sc-480) and blocked with SeaBlock reagent (Pierce Cat#37527). Lysates were incubated at 4° C. for 2 hours. Plates were washed 3× with 200ul/well PBS/0.1% triton-X-100. Plates are then incubated with 1:8000 dilution of HRP-conjugated anti-phosphotyrosine antibody (Clone 4G10, Upstate Biotechnology Cat#16-105) for 1 hour at room temperature. Plates were washed 3× with 200ul/well PBS/0.1% triton-X-100. Signal detection with Super Signal Pico reagent (Pierce Cat#37070) was done according to manufacturer's instruction with a Berthold microplate luminometer. All data points are an average of triplicate samples. […] Inhibition and IC50 data analysis was done with GraphPad Prism using a non-linear regression fit with a multiparamater, sigmoidal dose-response (variable slope) equation.

In the case of `CC(C)c1ccc(NC(=O)OC2CCN(c3ncnc4ccsc34)C2)cc1` (stereo not drawn) [Compound 5, (4-Isopropyl-phenyl)-carbamic acid 1-thieno [3,2-d]pyrimidin-4-yl-pyrrolidin-3-yl ester], the IC50 is 64 nM in experiment [1], 1300 nM in experiment [2] and 22 nM in experiment [3].
Consider `CC(C)c1ccc(NC(=O)NC2CCN(c3ncnc4sccc34)C2)cc1` (stereo not drawn) [Compound 9, 1-(4-Isopropyl-phenyl)-3-(1-thieno [2,3-d]pyrimidin-4-yl-pyrrolidin-3-yl)-urea], for which the IC50 turned out to be 41 nM in experiment [1], 1300 nM in experiment [2] and 55 nM in experiment [3].
For `CC(C)c1ccc(NC(=O)NC2CCN(c3ncnc4ccsc34)C2)cc1` (stereo not drawn) [Compound 11, 1-(4-Isopropyl-phenyl)-3-(1-thieno [3,2-d]pyrimidin-4-yl-pyrrolidin-3-yl)-urea] the same measures were 77 nM, 671 nM and 108 nM.
As to `O=C(Nc1ccc(Oc2ccccc2)cc1)NC1CCN(c2ncnc3ccsc23)C1` (stereo not drawn) [Compound 13, 1-(4-Phenoxy-phenyl)-3-(1-thieno [3,2-d]pyrimidin-4-yl-pyrrolidin-3-yl)-urea], the IC50 in experiment [2] is 881 nM; in experiment [3], greater than 5000 nM.
Take `O=C(Nc1ccc(OC2CCC2)nc1)NC1CCN(c2ncnc3ccsc23)C1` (stereo not drawn) [Compound 15, 1-(6-Cyclobutoxy-pyridin-3-yl)-3-(1-thieno [3,2-d]pyrimidin-4-yl-pyrrolidin-3-yl)-urea]: the values for the IC50 in experiment [2] and in experiment [3] were 983 nM and 1900 nM, respectively.
Take `CCN(CC)c1ccc(NC(=O)NC2CCN(c3ncnc4ccsc34)C2)cc1` (stereo not drawn) [Compound 18, 1-(4-Diethylamino-phenyl)-3-(1-thieno [3,2-d]pyrimidin-4-yl-pyrrolidin-3-yl)-urea]: the results for the IC50 in experiment [2] and in experiment [3] were 757 nM and 895 nM, respectively.
For the compound `O=C(Nc1ccc(N2CCCC2)cc1)NC1CCN(c2ncnc3ccsc23)C1` (stereo not drawn) [Compound 19, 1-(4-Pyrrolidin-1-yl-phenyl)-3-(1-thieno [3,2-d]pyrimidin-4-yl-pyrrolidin-3-yl)-urea], the IC50 in experiment [2] was found to be 850 nM; in experiment [3], 2900 nM.
In the same order, the values of `O=C(Nc1ccc(OC2CCC2)nc1)OC1CCN(c2ncnc3ccsc23)C1` (stereo not drawn) [Compound 25, (6-Cyclobutoxy-pyridin-3-yl)-carbamic acid 1-thieno[3,2-d]pyrimidin-4-yl-pyrrolidin-3-yl ester] are 345 nM and 1600 nM.
Turning to `O=C(Nc1ccc(Oc2ccccc2)cc1)OC1CCN(c2ncnc3ccsc23)C1` (stereo not drawn) [Compound 26, (4-Phenoxy-phenyl)-carbamic acid 1-thieno[3,2-d]pyrimidin-4-yl-pyrrolidin-3-yl ester], the results for the IC50 in experiment [2] and in experiment [3] were 953 nM and 390 nM, respectively.
